Measured values from publication PMC13223435, “Synthesis and Antiproliferative Activity against Melanoma Cells of New Heterocyclic Hybrids Based on Pyridine and Pyrimidine Scaffolds” (Current Medicinal Chemistry, 2025).

Legend:
Format in all cases: cell-based
melanoma A375 cells = experiment: WST-1 antiproliferative assay; details: Homo sapiens, A-375
Text: (§1) The A375 malignant melanoma cell line (ECACC 88113005, Salisbury, UK) was procured from the European Collection of Authenticated Cell Cultures (ECACC). The primary culture of human dermal fibroblasts (HDF) was derived from skin according to the protocol approved by the Ethical Committee of Pomeranian Medical University in Szczecin (KB-0012/02/18). The detailed protocol of fibroblast isolation, authentication, and cell culture conditions was previously described. Both cell lines were cultivated in a humidified incubator under conditions of 5% CO2 and a temperature of 37°C, using Dulbecco’s modified Eagle’s medium (DMEM) with 4500 mg/L glucose (Sigma-Aldrich Merck Group, St. Louis, MO, USA) enriched with 10% heat-inactivated fetal bovine serum (FBS, EURx, Gdańsk, Poland), 2 mM L-glutamine (Sigma-Aldrich Merck Group, St. Louis, MO, USA), and penicillin-streptomycin solution (Sigma-Aldrich Merck Group, St. Louis, MO, USA). Regular assessments for the presence of mycoplasma were conducted using the MycoAlert® Mycoplasma Detection Kit (Lonza, Rockland, ME, USA).
(§2) The evaluation of the antiproliferative activity of the compounds was performed using the Cell Proliferation Reagent WST-1 assay (Roche, Germany). This assay relies on the reduction of tetrazolium salt to formazan, with the final amount of formazan proportional to the number of viable cells. In our study, A375 cells (2×10^3) and HDF (3×10^3) were initially seeded into 96-well plates and cultured in a humidified atmosphere of 5% CO2 at 37°C. 24 hours later, the culture medium was replaced with a medium containing the tested compounds for a 48-hour incubation period at specified final concentrations. […] For control purposes, cells without the tested compounds, which contained only the vehicle (DMSO), were used. Additionally, a blank sample consisting of tested compounds in a medium (without cells) was included. After the 48-hour incubation period, the WST-1 reagent was introduced and allowed to incubate with the cells for 30 minutes. The absorbance was subsequently measured at 450 nm with background correction at 620 nm using a microplate reader (Infinite 200 Pro, Tecan, Männedorf, Switzerland). Cell viability was calculated according to the following formula: [(Atest–Ablank)/ (Acontrol − Ablank)] × 100%. These measurements were conducted in triplicate for at least three independent experiments.
In the screening step, 10 µM solutions of all 33 compounds were tested on A375 cells. […] Selected compounds (2c, 18e, 16b, 29) were tested at concentrations of 0.1, 1, 10, 50, and 100 µM. The IC50 values were determined using an online calculator (AAT Bioquest, Inc., Quest Graph™ IC50 Calculator (v.1). Retrieved from https://www.aatbio.com/tools/IC50-calculator-v1, accessed on: 2022, December 12).

A375 cells [1] = experiment: Live-cell imaging (time-lapse microscopy); details: 48 h
Procedure: For live-cell imaging, A375 cells were seeded into 96-well plates at a density of 2×10^3 cells per well and allowed to grow for 24 h before imaging. Next, the cell culture medium was carefully removed, and new medium containing 16b (at 2 µM and 10 µM) and 29 (at 5 µM and 10 µM) was added and the cell culture plate was placed in the imaging chamber of Agilent BioTek Lionheart FX automated microscope (Agilent Technologies, Inc., Santa Clara, CA, USA) equipped with a Plan Fluorite 20x/0.75 objective (Olympus, Nishi-Shinjuki, Tokyo, Japan), and a FLIR Blackfly BFLY-U3-23S6M camera (Teledyne FLIR, Wilsonville, OR, USA). The temperature in the imaging chamber was set to 37°C and CO2 level to 5%. The bright-field images were acquired every 5 minutes for 48 hours.

[2] = tested on: human dermal fibroblasts (HDF); experiment: WST-1 assay on non-tumor cells (selectivity)
Text: as §1, §2
For that purpose, non-tumor HDF cells were used and the concentrations of tested compounds were increased to 200 µM (0.4% DMSO) and 500 µM (1% DMSO). Appropriate controls were prepared for higher concentrations of DMSO.

A375 cells [3] = experiment: Cell cycle analysis (PI staining, Muse); details: 5 h
Procedure: For cell cycle analysis, A375 cells were initially plated in 6-well plates at a density of 1×10^5 cells per well and allowed to culture for 24 hours. Following this incubation period, the culture medium was replaced with fresh medium containing 16b and 29 at final concentrations of 1, 5, and 10 µM, after which the cells were incubated for an additional 5 hours. For control purposes, cells cultured in a medium containing 0.2% DMSO without treatment were utilized. The experimental procedure involved several steps: initially, the cells were rinsed with PBS, and then collected via trypsinization. The resulting cell pellet underwent another PBS wash before being fixed with 70% cold ethanol (Chempur, Piekary Śląskie, Polska) at -20°C for at least 3 hours. Before analysis, the ethanol-fixed cells were centrifuged, washed again with PBS, and then treated with Muse Cell Cycle Reagent (Luminex Corporation, Austin, TX, USA), which includes propidium iodide (PI) and RNAse. This staining process was carried out for 30 minutes at room temperature in the absence of light. The assay relies on PI-based staining of DNA content to differentiate and quantify the percentage of cells in the G0/G1, S, and G2/M phases of the cell cycle. The analysis was performed using the Muse Cell Analyzer (Luminex Corporation, Austin, TX, USA). The obtained findings were derived from a minimum of three independent experiments.

COc1cc(Cn2cc(-c3cccs3)ccc2=S)cc(OC)c1OC [Compound 16b]
activity at 10 µM (melanoma A375 cells; 10 µM, 48 h of treatment, A375, read-out: Cell proliferation (% control)): 42.8 ± 22.9%
IC50 (melanoma A375 cells; 48 hours of treatment): 1.85 ± 0.44 µM
time-lapse observation of A375 cells (A375 cells [1]; 2 µM): cells also divided, but less effectively, divisions lasted longer, and finally, the confluence was lower than that in the control well
time-lapse observation of A375 cells (A375 cells [1]; 10 µM): arrested mitosis resulted in mitotic slippage, leading to apoptosis or formation of binucleated cells
IC50 ([2]; Fibroblast, 48 hours of treatment, normal human dermal fibroblasts): 120 ± 8.42 µM
Selectivity index (SI) ([2]; IC50 normal cells (HDF)/IC50 cancer cell (A375)): 65.08
percentage of A375 cells in the G2/M phase (A375 cells [3]; 1 µM): 33.79 ± 0.46%
percentage of A375 cells in the G2/M phase (A375 cells [3]; 5 µM): 39.33 ± 5.27%
percentage of A375 cells in the G2/M phase (A375 cells [3]; 10 µM): 44.52 ± 4.00%
